From the NIST ThermoML archive (doi:10.1021/je200575c)

Conditions: Liquid, Vibrating tube method

CCCCCCCCCCCCCC [tetradecane]
Conditions | mass density [kg/m3]
323.2 K, 1050 kPa | 737
323.2 K, 2020 kPa | 742
323.2 K, 3160 kPa | 743
323.2 K, 4070 kPa | 744
323.2 K, 5060 kPa | 745
323.3 K, 5940 kPa | 745
373.4 K, 2080 kPa | 707
373.4 K, 4050 kPa | 709
373.4 K, 6010 kPa | 710
373.4 K, 7070 kPa | 711
373.5 K, 2970 kPa | 708
373.5 K, 5010 kPa | 710
373.6 K, 1010 kPa | 706
422.5 K, 1080 kPa | 672
422.5 K, 2140 kPa | 673
422.6 K, 3020 kPa | 675
422.6 K, 4020 kPa | 676
422.6 K, 5040 kPa | 677
422.6 K, 6050 kPa | 679
422.7 K, 7000 kPa | 680
422.7 K, 8000 kPa | 681
